Values after ≈ are worked out from the molar mass of the structure shown.
Experiments:
[1] = target: T1, human DNA topoisomerase I (Homo sapiens, UniProt P11387); test: Inhibition assay against human DNA topoisomerase I (plasmid relaxation, agarose gel); format: biochemical; details: for IC50: 2 units enzyme, supercoiled pBAD-GFPuv, 30 min 37° C., read-out: IC50 hTopo I; for supercoiled DNA template prevented from relaxation by human DNA topoisomerase I: 50 μM compound
T1 sequence (P11387 1-765): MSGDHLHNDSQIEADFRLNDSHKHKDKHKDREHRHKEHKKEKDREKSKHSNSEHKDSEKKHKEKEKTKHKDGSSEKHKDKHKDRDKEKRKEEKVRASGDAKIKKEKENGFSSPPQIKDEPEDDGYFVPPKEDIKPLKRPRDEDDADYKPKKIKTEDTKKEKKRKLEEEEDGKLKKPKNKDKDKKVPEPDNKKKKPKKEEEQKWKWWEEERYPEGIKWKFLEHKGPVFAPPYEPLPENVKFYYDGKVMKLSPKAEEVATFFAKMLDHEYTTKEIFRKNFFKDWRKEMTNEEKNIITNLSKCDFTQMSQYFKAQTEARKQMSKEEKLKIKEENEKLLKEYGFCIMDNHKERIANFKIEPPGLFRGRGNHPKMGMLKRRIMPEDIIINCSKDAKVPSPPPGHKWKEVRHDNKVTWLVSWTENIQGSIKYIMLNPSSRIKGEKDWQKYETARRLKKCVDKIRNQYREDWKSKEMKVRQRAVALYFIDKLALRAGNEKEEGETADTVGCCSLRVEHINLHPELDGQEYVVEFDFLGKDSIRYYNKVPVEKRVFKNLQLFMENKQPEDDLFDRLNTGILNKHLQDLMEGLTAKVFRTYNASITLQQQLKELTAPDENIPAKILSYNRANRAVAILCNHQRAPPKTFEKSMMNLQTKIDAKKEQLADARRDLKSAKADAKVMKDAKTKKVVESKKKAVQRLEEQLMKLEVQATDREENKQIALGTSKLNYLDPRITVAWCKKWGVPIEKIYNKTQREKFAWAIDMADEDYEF
Experimental: Inhibition Assays Against Human DNA Topoisomerase I:
The inhibition assays were used to determine the activities of the newly synthesized compounds against Human DNA topoisomerase I. The reaction mixture (25 μl) contained 20 mM Tris-HCl at pH 7.9, 50 mM KAc, 10 mM Mg(Ac)2, 1 mM DTT, 1 μg/ml BSA, 250 ng of the supercoiled plasmid pBAD-GFPuv, 2 units of Human DNA topoisomerase I, and one of the compounds at a final concentration that ranges from 5 to 50 μM. All components were assembled on ice and incubated for 30 minutes at 37° C. After the incubation, the reactions were terminated by extraction with an equal volume of phenol. The topological state of the DNA samples was analyzed with 1% agarose gel electrophoresis in 1×TAE buffer, pH 7.8. Following electrophoresis, the agarose gel was stained with Ethidium Bromide, destained, and photographed under UV light. The intensity of DNA topoisomers was determined using KODAK 1D Image Analysis Software. The percentage of (−) supercoiled DNA was calculated from a comparison of the intensity of the (−) supercoiled band with the total intensity of all DNA topoisomers. The IC50 was calculated as the amount of the drug for which 50% of the DNA was in a (−) supercoiled state.

[2] = target: E. coli DNA topoisomerase I (Escherichia coli, UniProt P06612); test: Inhibition assay against E. coli DNA topoisomerase I (plasmid relaxation, agarose gel); format: biochemical; details: 6 nM enzyme; for IC50: supercoiled pBAD-GFPuv, 15 min 37° C., average of at least three determinations, read-out: IC50 ecTopo I; for concentration needed to completely inhibit the activities of E. coli DNA topoisomerase I: gel titration (FIG. 3A, 3B)
Experimental: Inhibition Assays Against E. coli DNA Topoisomerase I:
Inhibition assays were used to determine the activities of the newly synthesized compounds against E. coli DNA topoisomerase I. The reaction mixture (30 μl) contained 20 mM Tris-HCl at pH 7.9, 50 mM KAc, 10 mM Mg(Ac)2, 1 mM DTT, 1 μg/mL BSA, 150 ng of the supercoiled plasmid pBAD-GFPuv, 6 nM of E. coli topoisomerase I, and one of the compounds at a specified concentration that ranges from 0.5 to 45 μM. All components were assembled on ice and incubated for 15 min at 37° C. After the incubation, the reactions were terminated by extraction with an equal volume of phenol. The topological state of the DNA samples was analyzed with 1% agarose gel electrophoresis in 1×TAE buffer, pH 7.8. Following electrophoresis, the agarose gel was stained with Ethidium Bromide, destained, and photographed under UV light. The intensity of DNA topoisomers was determined using KODAK 1D Image Analysis Software. The percentage of (−) supercoiled DNA was calculated from a comparison of the intensity of the (−) supercoiled band with the total intensity of all DNA topoisomers. The IC50 was calculated as the amount of the drug for which 50% of the DNA was still in a (−) supercoiled state.

[3] = tested on: Enterococcus faecalis ATCC 29212; test: MIC by microbroth dilution, E. faecalis 29212; format: cell-based; details: for MIC: Enterococcus faecalis, ATCC29212, read-out: MIC S6 = E. faecalis 29212; for MIC / MIC S6 = E. faecalis 29212: microbroth dilution, 24 h 37° C.; for activity against E. faecalis 29212 (in words): comment on Table 4
Experimental: (§1) Minimum Inhibitory Concentration (MIC) Determination:
(§2) Bacteria used in this study were Staphylococcus aureus ATCC 29213, Escherichia coli ATCC 25922, Escherichia coli K12, Staphylococcus aureus ATCC 33591, Pseudomonas aeruginosa ATCC 27853, and Enterococcus faecalis ATCC 29212. All compounds were tested by the microbroth dilution method following Clinical and Laboratory Standards Institute guidelines. Briefly, Mueller-Hinton broth (Difco Laboratories, Becton Dickinson) was inoculated with each organism and incubated at 37° C. with shaking to establish logarithmic growth. Following incubation, each culture was pelleted by centrifugation (3,500×g for 5 min) and resuspended in 0.85% sterile saline solution to an optical density at 625 nm of 0.1. Samples were tested in triplicate using 96 well microplates (Corning Costar Corp. Cambridge, Mass.), yielding final bacterial concentrations of 5×10^5 CFU/mL, and incubated for 24 h at 37° C. Following incubation, optical densities of each well were determined with a μQuant microplate spectrophotometer (BioTek Instruments, Inc., Winooski, Vt.) at 625 nm.

Escherichia coli K12 = test: MIC by microbroth dilution, E. coli K12; format: cell-based; details: for MIC: Escherichia coli, K12, 24 h 37° C., read-out: MIC S5 = E. coli K 12; for MIC S5 = E. coli K 12: 24 h 37° C.
Experimental: as §1, §2

Chain of E. coli DNA topoisomerase I (P06612 whole entry): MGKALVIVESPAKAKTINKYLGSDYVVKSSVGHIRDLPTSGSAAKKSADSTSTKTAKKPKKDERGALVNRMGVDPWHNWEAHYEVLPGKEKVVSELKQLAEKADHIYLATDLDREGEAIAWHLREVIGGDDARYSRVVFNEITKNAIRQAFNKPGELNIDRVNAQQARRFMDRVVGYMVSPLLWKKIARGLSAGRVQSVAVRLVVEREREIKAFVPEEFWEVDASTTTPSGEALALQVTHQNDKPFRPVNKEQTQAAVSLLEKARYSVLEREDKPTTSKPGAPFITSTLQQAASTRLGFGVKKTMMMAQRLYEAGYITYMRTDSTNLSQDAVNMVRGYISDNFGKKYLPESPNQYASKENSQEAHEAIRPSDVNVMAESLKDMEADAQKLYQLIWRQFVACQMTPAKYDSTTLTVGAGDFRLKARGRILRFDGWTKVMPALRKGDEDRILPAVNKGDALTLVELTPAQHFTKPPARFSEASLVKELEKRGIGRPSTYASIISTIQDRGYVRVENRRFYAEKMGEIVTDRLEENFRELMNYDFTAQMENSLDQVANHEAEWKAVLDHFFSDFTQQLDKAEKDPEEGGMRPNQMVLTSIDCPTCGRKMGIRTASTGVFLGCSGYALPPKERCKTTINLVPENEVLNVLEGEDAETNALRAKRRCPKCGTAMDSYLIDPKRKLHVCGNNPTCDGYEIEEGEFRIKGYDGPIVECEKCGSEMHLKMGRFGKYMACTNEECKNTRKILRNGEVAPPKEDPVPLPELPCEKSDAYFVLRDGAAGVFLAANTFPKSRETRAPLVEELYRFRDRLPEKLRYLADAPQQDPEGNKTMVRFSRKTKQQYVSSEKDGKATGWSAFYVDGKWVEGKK

SMILES	IC50 [1]	IC50 [2]	MIC [3]	activity against E. faecalis 29212 (in words) [3]	MIC (Escherichia coli K12)	supercoiled DNA template prevented from relaxation by human DNA topoisomerase I [1]	concentration needed to completely inhibit the activities of E. coli DNA topoisomerase I [2]	MIC S6 = E. faecalis 29212 [3]	MIC S5 = E. coli K 12 (Escherichia coli K12)
C#CCCCCOc1ccc(-c2nc3ccc(-c4nc5ccc(N6CCN(C)CC6)cc5[nH]4)cc3[nH]2)cc1 [DPA 152, 2′-(4-(hex-5-ynyloxy)phenyl)-6-(4-methylpiperazin-1-yl)-1H,3′H-2,5′-bibenzo[d]imidazole]	> 50 µM	4.57 ± 0.81 µM	4 µg/mL (≈ 7.93 µM)	markedly improved activity	8 to 16 µg/mL (≈ 15.9 to 31.7 µM)	–	–	–	–
CN1CCN(c2ccc3[nH]c(-c4ccc5[nH]c(-c6ccc(O)cc6)nc5c4)nc3c2)CC1 [Hoechst 33258, reference compound]	22.9 ± 1.55 µM	19.5 ± 1.32 µM	–	not good inhibitors	–	about 70%	approximately 20 μM	16 to 32 µg/mL	16 µg/mL (≈ 37.7 µM)
C#CCOc1ccc(-c2nc3ccc(-c4nc5ccc(N6CCN(C)CC6)cc5[nH]4)cc3[nH]2)cc1 [DPA 151, 6-(4-methylpiperazin-1-yl)-2′-(4-(prop-2-ynyloxy)phenyl)-1H,3′H-2,5′-bibenzo[d]imidazole]	25.4 ± 2.2 µM	5.5 ± 0.5 µM	16 to 32 µg/mL (≈ 34.6 to 69.2 µM)	–	8 µg/mL (≈ 17.3 µM)	about 70%	approximately 5 μM	–	–
C#CCCCCCCCCCOc1ccc(-c2nc3ccc(-c4nc5ccc(N6CCN(C)CC6)cc5[nH]4)cc3[nH]2)cc1 [DPA 153, 6-(4-methylpiperazin-1-yl)-2′-(4-(undec-10-ynyloxy)phenyl)-1H,3′H-2,5′-bibenzo[d]imidazole]	> 50 µM	2.47 ± 0.06 µM	16 to 32 µg/mL (≈ 27.8 to 55.7 µM)	–	8 to 16 µg/mL (≈ 13.9 to 27.8 µM)	–	–	–	–
C#CCOCCCCOc1ccc(-c2nc3ccc(-c4nc5ccc(N6CCN(C)CC6)cc5[nH]4)cc3[nH]2)cc1 [DPA 154, 6-(4-methylpiperazin-1-yl)-2′-(4-(4-(prop-2-ynyloxy)butoxy)phenyl)-1H,3′H-2,5′-bibenzo[d]imidazole]	> 50 µM	6.63 ± 0.47 µM	–	markedly improved activity	8 to 16 µg/mL (≈ 15 to 29.9 µM)	–	–	–	–
CCOc1ccc(-c2nc3ccc(-c4nc5ccc(N6CCN(C)CC6)cc5[nH]4)cc3[nH]2)cc1 [Hoechst 33342, reference compound]	> 50 µM	29.8 ± 2.75 µM	–	not good inhibitors	–	–	–	16 to 32 µg/mL	8 µg/mL (≈ 17.7 µM)
